# Source: patent publication US20100297265A1, “Optimal compositions and methods for treating oral disease and pain” (priority 2009, published 2010)
# Where two headings read alike, the source gives them in different places.
# What was measured:
# [1] = system: Streptococcus mutans strain ATCC 25175; assay: S. mutans growth in TS media with cesium/sodium salts (OD 600 nm, doubling time); assay type: cell-based; conditions: for colonies on TS-agar plate: 50 μL of 100 mM salt culture spread onto TS-agar plate; for Minimum Inhibitory Concentration (MIC): Lineweaver-Burke plot of growth data; for inhibition of culture growth rates: nitrate salt, tested at 25-100 mM
# Experimental: (§1) Streptococcus mutans strain ATCC 25175 was obtained from American Type Culture Collection in the freeze-dried state. Cells were rehydrated in a trypticase soy-yeast extract media (30 g trypticase soy broth and 3 g yeast extract per liter mqH2O; TS media). The bacteria were grown overnight at 37° C., shaking at 60 rpm in 50 mL broth. For routine propagation of the strain, S. mutans was grown on trypticase soy agar plates, TS media with 15 g/L agar. Escherichia coli strain K12 was grown as a representative enteric bacteria in LB broth (10 g tryptone, 5 g yeast extract and 10 g NaCl per liter mqH2O).
# To assess the toxicity of cesium chloride, growth rates were calculated from cultures grown in the absence and presence of cesium chloride with sodium chloride added to controls to maintain consistent ionic strength. The first growth curves conducted used duplicate cultures of 50 mL TS media in 125 mL flasks with foam stoppers. The media was inoculated with 1 mL of the starter culture (2% inoculum) and the optical density was measured at 600 nm. Two conditions were initially tested: 100 mM CsCl and 100 mM NaCl.
# (§2) An increasing gradient of CsCl concentrations was examined to see how bacterial growth rate varies with salt concentration. Concentrations of 0 mM, 5 mM, 10 mM, 25 mM, 50 mM, 75 mM and 100 mM CsCl were tested; NaCl was used to counter balance control in order to maintain constant ion concentrations.
# Additional cesium salts were used to assess alternate inhibitors of S. mutans cultures. Cesium salts of hydroxide, formate, bicarbonate, sulfate, nitrate, fluoride, and iodide were obtained from Fisher Scientific. Growth rates of S. mutans were monitored with 0 mM, 25 mM, 50 mM, and 100 mM cesium salt in TS broth. Control cultures were grown with sodium hydroxide, bicarbonate, nitrate, and sulfate at 0 mM, 25 mM, 50 mM, and 100 mM.
# To investigate the inhibition of S. mutans by cesium chloride, growth in the presence and absence of CsCl was compared. Ions were balanced with NaCl in all cultures to a final concentration of 100 mM of supplemental cations added to the media (i.e., for 75 mM CsCl, 25 mM NaCl was added to bring the total concentration of supplemental cation to 100 mM). All data is presented in optical density absorbance measurements at 600 nm, or doubling times (the length of time it takes for a culture to double in time).
# [2] = system: Escherichia coli strain K12; assay: E. coli K12 growth in LB broth with CsCl; assay type: cell-based
# Experimental: as §1
# as §2, with “concentrations. Additional gradient growth curves with 0 mM, 20 mM, 30 mM, 40 mM and 50 mM CsCl were conducted to refine the inhibition profile of S. mutans.” for “concentrations.”
# [3] = system: E. coli potassium channel mutants (Kch JW1242, TrkG JW1358, TrkH JW5576, KdpA JW0686); assay: Growth of E. coli potassium channel mutants with CsCl; assay type: cell-based, Escherichia coli
# Experimental: In order to better understand the mechanism of inhibition, the following potassium channel mutants of E. coli from the Keio collection were obtained from the Coli Genetic Stock Center at Yale University: Kch mutant JW 1242-1, TrkG mutant JW 1358-1, TrkH mutant JW 5576-1, and KdpA mutant JW686-5. Mutant E. coli strains were grown in LB broth in the presence or absence of CsCl (either 0 mM, 50 mM, or 100 mM CsCl) to assess the role of potassium transport channels in cesium inhibition.
# It was hypothesized that, as a larger monovalent cation, cesium could block potassium channels, thereby blocking the uptake of potassium into the cell and retarding cell growth. Strains of E. coli with non-essential genes knocked out were acquired from the Yale Coli Genetic Stock Center. Four mutants were chosen: JW0686, a KdpA mutant, a cesium inducible potassium transporting ATPase; JW1242, a Kch mutant, a conductive potassium transporter; JW1358, a TrkG mutant, a transmembrane component of the Trk potassium uptake system; JW5576, a TrkH mutant, a transmembrane component of the Trk potassium uptake system. TrkG and TrkH determine the specificity of the Trk protein. Because of their similarity (i.e., 41% nucleotide homology), Trk can be made with either one of the two subunits if the other is not available, although TrkG is preferred.
# [4] = system: S. mutans; assay: S. mutans growth with CsCl under differing pH conditions; assay type: cell-based, Streptococcus mutans
# [5] = system: S. mutans; assay: Spiking of exponentially growing S. mutans cultures; assay type: cell-based, Streptococcus mutans; conditions: for doubling time: culture spiked with 100 mM salt in early exponential phase
# Experimental: To determine how CsCl affects exponentially growing S. mutans cells, cultures were spiked with CsCl. TS media was prepared as in previous experiments and cultures were started with 0.2% inoculum. The cultures were grown for three and a half hours while monitoring the growth with the OD at 600 nm. When the cultures were in early exponential growth phase, they were spiked with 100 mM CsCl, 100 mM NaCl, or Listerine mouthwash in a 1:10 or 1:100 dilution in TS media.
# [6] = system: S. mutans; conditions: previous study, cited from earlier work
# [7] = 0, 25, 50 and 100 mM cesium salt
molecule,measurement,setting,value
"[Cl-].[Cs+] [CsCl, cesium chloride]",maximum yield,"[1]; 0, 5, 10 and 25 mM CsCl cultures, OD 600 nm",0.9 OD units
same,doubling time,"[1]; 5 mM CsCl, NaCl added to 100 mM total supplemental cation",1.06 h
same,doubling time,"[1]; 10 mM CsCl, NaCl added to 100 mM total supplemental cation",0.94 h
same,doubling time,"[1]; 25 mM CsCl, NaCl added to 100 mM total supplemental cation",1.17 h
same,doubling time,"[1]; 50 mM CsCl, NaCl added to 100 mM total supplemental cation",1.54 h
same,doubling time,"[1]; 75 mM CsCl, NaCl added to 100 mM total supplemental cation",2.37 h
same,doubling time,[1]; 100 mM CsCl,4.17 h
same,growth of S. mutans,[1]; 100 mM CsCl culture,almost completely inhibited
same,colonies on TS-agar plate,[1],thin translucent colonies after a week
same,Minimum Inhibitory Concentration (MIC),[1],61.2 mM
same,doubling time,[2]; all CsCl concentrations tested (0-100 mM),approximately 1 h
same,effect on growth rate,"[2]; concentrations as high as 100 mM CsCl, LB media",minimal effect
same,inhibition of mutants,"[3]; 0, 50 or 100 mM CsCl in LB broth",some inhibition
same,reduction in growth rate,"[3]; 100 mM CsCl vs control with 100 mM NaCl, most inhibited cultures",roughly one third
same,doubling time,"[4]; 25 mM CsCl, pH 7.00",52 min
same,inhibition,"[4]; 25 mM CsCl, pH 7.25",No inhibition
same,doubling time,"[4]; 25 mM CsCl, pH 8.33",64 min
same,increase of doubling time,"[4]; 25 mM CsCl, pH 8.33 vs pH 7.00",25%
same,inhibition relative to neutral pH,"[4]; 100 mM, pH 8.33",more inhibitory
same,inhibition relative to neutral or basic pH,[4]; pH 4.50,less inhibitory
same,inhibition relative to other pH tested,[4]; pH 8.33,strongest inhibition
same,doubling time,[5],2.49 h
O=[N+]([O-])[O-].[Na+] [sodium nitrate],inhibition of culture growth rates,[1],roughly 30%
[Cs+].[OH-] [Cesium hydroxide],inhibition of S. mutans growth,"[1]; 50 mM or greater, due to increase in pH",inhibited cultures completely
same,pH of the media,50 mM,9.5
same,pH of the media,100 mM,12.5
[Cs+].[I-] [Cesium iodide],inhibition of S. mutans growth,[1]; [7],little to no inhibition
cesium bicarbonate,inhibition of S. mutans growth,[1]; 50 mM,increased inhibition
same,inhibition of S. mutans growth,[1]; 100 mM,complete inhibition
same,Minimum Inhibitory Concentration (MIC),[1],40.5 mM
same,inhibition compared with sodium bicarbonate control,[1]; concentrations less than 45 mM,not significantly different
same,inhibition compared with sodium bicarbonate control,[1]; concentrations of 45 mM or greater,inhibited S. mutans growth more than the control cultures
same,MIC lower than the MIC for CsCl by,[1]; difference of MIC values,more than 20 mM
O=C[O-].[Cs+] [Cesium formate],inhibition of S. mutans growth,[1]; [7],little to no inhibition
O=S(=O)([O-])[O-].[Cs+].[Cs+] [Cesium sulfate],inhibition of S. mutans growth,[1]; concentrations of 50 mM or below,not inhibitory
"[Na+].[OH-] [NaOH, sodium hydroxide]",pH of the media,50 mM,9.5
same,pH of the media,100 mM,12.5
O=C([O-])O.[Na+] [sodium bicarbonate],completely inhibitory concentration,[6]; 8% w/v converted,~950 mM
same,completely inhibitory concentration,[6],8 % w/v
[Cs+].[F-] [Cesium fluoride],inhibition of S. mutans growth,[1]; [7],little to no inhibition
O=[N+]([O-])[O-].[Cs+] [Cesium nitrate],inhibition of culture growth rates,[1],roughly 30%
"[Cl-].[Na+] [NaCl, sodium chloride]",doubling time,[1]; 100 mM NaCl (presented as 0 mM CsCl),roughly 1 hour
same,colonies on TS-agar plate,[1],small opaque white colonies overnight
same,yield,[5]; 100 mM spiked control,0.9 OD units
same,doubling time,[5],1.21 h
